Results reported in paper PMC7156612, “Olinciguat, an Oral sGC Stimulator, Exhibits Diverse Pharmacology Across Preclinical Models of Cardiovascular, Metabolic, Renal, and Inflammatory Disease” (Frontiers in Pharmacology, 2020).
“Also recorded” adds a separate entry of the source.

Legend:
[1] = system: pulmonary artery smooth muscle from idiopathic pulmonary arterial hypertension (PAH) patients; set-up: method as in Yamamura et al., 2017; conditions: ref Yamamura et al., 2017, read-out: IC50, inhibition of proliferation; cited from earlier work
[2] = set-up: method as in Forgue et al., 2006; conditions: healthy volunteers, after 10 days of dosing at 20 mg QD; ref Forgue et al., 2006; read-out: Cmax plasma concentration; cited from earlier work
[3] = system: pulmonary artery smooth muscle from healthy subjects; set-up: method as in Yamamura et al., 2017; conditions: ref Yamamura et al., 2017; cited from earlier work
[4] = system: vascular smooth muscle cells (VSMC) from rat aorta; test: Rat aorta vascular smooth muscle cell proliferation (3H-thymidine incorporation); format: cell-based; conditions: tadalafil alone at or below 10 µM; 5% FBS, 10 µM DETA
Method: We explored the concentration response of olinciguat, tadalafil, and olinciguat in the presence of 1 μM tadalafil on rat aorta vascular smooth muscle proliferation, Tadalafil was used because it is a once-daily PDE5 inhibitor that, like the three-times-daily PDE5 inhibitor sildenafil, is approved for treatment of PAH and ED. Vascular smooth muscle cells (VSMC) from rat aorta (Lonza, R-ASM-580) were plated into a 96-well plate at 15,000 cells per well in DMEM:F12 containing 20% FBS and GA-1000 ([Gentamicin, Amphotericin B], Lonza, CC-40863) for 24 h at 37°C. Medium was removed and cells were washed once with 100 μl DMEM:F12 before adding 100 μl of DMEM:F12 and incubating for 24 h to induce quiescence. Cells were then cultured for 24 h in DMEM:F12 supplemented with 5% FBS, in the presence of test articles (vehicle, olinciguat, tadalafil) with 10 µM DETA. In the last 6 h, 0.2 μCi of ^3H-thymidine (American Radiolabeled Chemicals, ART 0178A) was added to each well to measure DNA synthesis by thymidine incorporation. Cells were washed once with HBSS and then trypsinized and transferred into FB filter plates (Millipore, MADVNOB). A rapid-filtration technique using a filtration apparatus (Millipore, MAVM0960R) with vacuum aspiration was used to harvest and rinse labeled cells (6× with 0.2 ml of chilled water). The radioactivity bound to the filters was counted with 80 µl of liquid scintillant (PerkinElmer, UltraGold MV, 6013159) in a scintillation counter (Perkin Elmer Microbeta instrument).
In the vascular smooth muscle cell proliferation experiment, a comparison between the IC50's for olinciguat alone vs oliniciguat in the presence of 1 µM tadalafil was performed by a two-tailed t-test using Log EC50 best fit values and SEs determined from a four-parameter nonlinear curve fit, assuming n=60 degrees of freedom.

obese ZSF1 rats [5] = system: obese ZSF1 rats; set-up: method as in Bilan et al., 2011; conditions: 8-week old obese ZSF1 rats, enalapril 60 mg/kg/day in drinking water for 24 weeks; ref Bilan et al., 2011; cited from earlier work
obese ZSF1 rats [6] = test: ZSF1 rat model of metabolic syndrome and diabetic nephropathy; format: in vivo
Method: Lean (n=8, 370–420 g, 15 weeks) and obese (n=32, 500–630 g, 15 weeks) male ZSF1 rats were studied. Rats were treated with enalapril to reflect standard of care drug treatment for patients with diabetic kidney disease. Dose modeling based on allometric scaling relationships estimated that a 10 mg/day enalapril dose in humans (within usual dose range of 10–40 mg based on prescribing information) corresponds to 1 mg/kg/day in rats ([Nair and Jacob, 2016]). To measure hemodynamics in freely moving animals, ZSF1 obese rats were implanted with telemetry transmitters (HD-S10, Data Sciences International) at 9–10 weeks of age, as described above.
The study included a 10-day pretreatment period and a 10-week treatment period. There were five groups of rats in the study. The lean ZSF1 control group (lean control, n=8) and one obese group (obese control, n=8) were fed normal chow and drinking water throughout the 10-day pretreatment period and the 10-week treatment period. Three groups of obese rats were treated with enalapril in drinking water (equivalent to 3 mg/kg/day) throughout the 10-day pretreatment period and the 10-week treatment period. During the treatment period, these enalapril-treated obese rats were administered normal chow (ENP, n=8) or chow containing olinciguat targeting the dose of 10 mg/kg/day (ENP+OLI10, n=8) or 30 mg/kg/day (ENP+OLI30, n=8). Blood and 24-h urine samples were obtained from all animals at baseline (immediately prior to initiation of enalapril treatment), the end of the 10-day pretreatment period (Day 10) and at week 5 and week 10 of the treatment period. Plasma samples were obtained from all olinciguat-treated animals for measurement of olinciguat exposure at week 10. During week 9 of treatment, rats were fasted for 16 h overnight prior to determination of fasting blood glucose using the AlphaTRAK (Abbott) glucose monitoring system. Body weight was measured once every other week. At the end of the study, rats were anesthetized and perfused via the left ventricle with heparinized PBS (1 U/ml heparin) containing IBMX (1 mM). Organs were collected and weighed, and plasma was collected in EDTA tubes. For serum, blood was collected in serum separator tubes, maintained at room temperature for at least 30 min and centrifuged at 6,000 rpm for 10 min, and then stored at −80°C until analysis. Urine and serum samples were analyzed using the Randox Daytona Clinical Chemistry Analyzer (Randox, Kearneysville, WV) for urine protein, serum cholesterol and serum triglycerides. All measurements were performed in accordance with manufacturer's instructions.
For histology, one kidney from each rat was fixed in 10% formalin, then embedded in paraffin. Slides were prepared and stained with hematoxylin and eosin (H&E) and periodic-acid Schiff (PAS) for light microscopic analysis. Kidney sections were evaluated for the presence of glomerular pathology, tubular damage, interstitial inflammation, interstitial fibrosis, and vascular alterations. Severity-based scoring based on these evaluations was performed by a trained pathologist.
For the ZSF1 experiment, data are expressed as mean ± standard error of the mean (SEM).
In the ZSF1 study, change from baseline NT-proBNP, week 10 heart, kidney, and liver weight, urine volume, cholesterol, triglycerides, glucose, and renal histopathology sum score were analyzed by one-way ANOVA corrected for multiple comparisons using Tukey's method. Statistically significant differences vs the obese control and vs the ENP group are indicated in the results. MAP and UPE were analyzed by an ordinary two-way ANOVA with timepoint and treatment group as independent variables, followed by a Tukey's multiple comparisons test. Within each treatment group, significant differences vs baseline are indicated in the results. At week 10, statistically significant differences vs the obese control and vs the ENP control are also indicated in the results.

[7] = set-up: method as in Tobin et al., 2018; conditions: ref Tobin et al., 2018; cited from earlier work

CN1CC(=O)N2[C@H](c3ccc4c(c3)OCO4)c3[nH]c4ccccc4c3C[C@@H]2C1=O [tadalafil]
IC50 [1]: 4.5 µM | Cmax [2]: 1000 nM | effect on proliferation [3]: no effect | inhibition of VSMC proliferation by tadalafil alone [4]: did not inhibit vascular smooth muscle cell proliferation; also recorded: did not inhibit VSMC proliferation

CCOC(=O)[C@H](CCc1ccccc1)N[C@@H](C)C(=O)N1CCC[C@H]1C(=O)O [ENP, reference compound]
reduction in MAP (obese ZSF1 rats [5]): ~ 50 mmHg | MAP at Week 10 (obese ZSF1 rats [6]; obese ZSF1, enalapril 3 mg/kg/day in drinking water, obese control 122 ± 1): 111 ± 1 mmHg | fasting blood glucose (obese ZSF1 rats [6]; obese ZSF1, enalapril 3 mg/kg/day, week 9, obese control 279.4 ± 36.5): 276.5 ± 30.9 mg/dL | change from baseline NT-proBNP (obese ZSF1 rats [6]; obese ZSF1, enalapril 3 mg/kg/day, baseline to end of treatment, obese control +86 ± 22): +44 ± 28 pg/ml | total kidney weight (obese ZSF1 rats [6]; obese ZSF1, enalapril 3 mg/kg/day, obese control 9.7 ± 0.2, lean 7.4 ± 0.07): 9.5 ± 0.3 g/kg BW | renal pathology sum score (obese ZSF1 rats [6]; obese ZSF1, enalapril 3 mg/kg/day, obese control 14.6 ± 0.2, p=0.025 vs obese control): 12.2 ± 0.4 | liver weight (obese ZSF1 rats [6]; obese ZSF1, enalapril 3 mg/kg/day, obese control 72.0 ± 1.9): 70.5 ± 1.1 g/kg BW | serum cholesterol at week 10 (obese ZSF1 rats [6]; obese ZSF1, enalapril 3 mg/kg/day, obese control 428.6 ± 12.7): 383 ± 9.8 mg/dL | serum triglycerides at week 10 (obese ZSF1 rats [6]; obese ZSF1, enalapril 3 mg/kg/day, obese control 4913 ± 487.1): 3850 ± 326.0 mg/dL | increase of proteinuria over 10-week treatment period (obese ZSF1 rats [6]; obese ZSF1, enalapril alone 3 mg/kg/day, obese controls 153%): 168% | kidney weight, percent greater than in the lean control group (obese ZSF1 rats [6]; obese ZSF1 treated with enalapril): 28%

OC(CNc1nc(-c2cc(-c3ccon3)n(Cc3ccccc3F)n2)ncc1F)(C(F)(F)F)C(F)(F)F [praliciguat]
volume of distribution [7]: 10.5 L/kg
